According to US12178875B2, “Lymphatic system-directing lipid prodrugs” (Seaport Therapeutics, Inc., priority 2017, dated 2024):

Legend:
[1] = In vitro release of therapeutic agent from prodrugs in plasma supplemented with lipoprotein lipase; type: in vitro ADME, rat
Experimental: The percentage of MPA released at 60 minutes in LPL-supplemented rat plasma was also determined for selected compounds. […] The designation “**” indicates a release % of >25% to 50%. The designation “***” indicates a release % of >50% to 75%. The designation “****” indicates a release % of >75%.
In order to probe the release of free drug from TG prodrugs in the systemic circulation, prodrugs were incubated with plasma (rat, mouse, dog, pig or human) supplemented with lipoprotein lipase (LPL, 200 IU/ml). LPL is a key enzyme required for the hydrolysis of lipoprotein associated TG in the systemic circulation and is therefore expected to be a key contributor to lipolysis of the re-esterified drug-TG construct in plasma, largely via liberation of fatty acids in the sn-1 and the sn-3 position of the TG-mimetic, prior to drug release from the 2′ position via esterase hydrolysis. LPL is […] is tethered to the luminal surface of vascular endothelial cells under physiological conditions. In the current in vitro studies, plasma was therefore supplemented with LPL to better reflect the in vivo situation. To start hydrolysis, 10 μl of LPL solution (10,000 IU/ml) was added to a mixture of 10 μl of prodrug solution (1 mg/ml dissolved in acetonitrile) and 500 μl of blank plasma. The mixture was incubated at 37° C. Samples (20 μl) of the incubation solution were taken at 0, 5, 15, 30, 60, 90, 120 and 180 minutes post-incubation and added to 180 μl of MeCN to stop lipolysis. The mixture was vortexed and centrifuged at 4500×g for 5 minutes to precipitate proteins prior to analysis. The supernatant was analyzed by HPLC-MS/MS for the potential products (MG form, acid form, and free drug) of prodrug hydrolysis.
To assess the stability and release profile of compounds of the present invention, compounds TAC-I-18 and TAC-I-20 were incubated with rat plasma and the concentrations of compounds, parent drug tacrolimus, and acid were monitored by LCMS for about three hours.

[2] = mice, oral, multiple dose study: 2 times daily for 2 days, samples on the 3rd day (FIG. 8A/8B)
Experimental: This experiment included a single and multiple dose study. In the multiple dose study, dosing of either free MPA or MPA-2-TG (MPA-I-34, structure below) 2 times daily was performed for 2 days followed by collecting samples from mesenteric or peripheral lymph nodes on the 3rd day after dosing.
The concentrations of free MPA were measured for both groups of mice.

[3] = Lymphatic transport assay in mesenteric lymph-duct cannulated rats; type: in vivo, rat; details: total MPA related compound, intraduodenal infusion, anaesthetised mesenteric lymph-duct cannulated rats; class symbols
Experimental: In order to assess the lymphatic transport of disclosed lipid prodrugs in rats, the mesenteric lymph ducts of the rats used in this study were cannulated to allow continual collection of mesenteric lymph. Lipid formulations containing the compound of interest were then administered to the animals, lymph was collected, and drug concentrations in the lymph samples were quantified.
Lipid-based formulations of the compounds of the invention or control compounds were prepared as previously described (Trevaskis, N. L. et al., Pharmaceutical Research, 2005, 22(11), 1863-1870, WO 2016/023082, and WO 2017/041139, hereby incorporated by reference.
In brief, either 1 or 2 mg of test prodrug, 40 mg oleic acid and 25 mg Tween 80 were mixed in a glass vial and incubated at 37° C. for 12-18 h to equilibrate. An aqueous phase consisting of 5.6 ml phosphate buffered saline (PBS, pH 7.4) was subsequently added to the lipid phase (MPA was dissolved in PBS for the preparation of MPA containing formulations) and the formulation emulsified by ultrasonication with a Misonix XL 2020 ultrasonic processor (Misonix, Farmingdale, NY, USA) equipped with a 3.2-mm microprobe tip running at 30% of the maximal amplitude of […] and a frequency of 20 kHz for 2 min at room temperature. Doses for administering to more than one animal can be prepared in one batch by suitably increasing the quantities given above. Drug/prodrug concentrations in all formulations were verified using HPLC-MS.
Male Sprague-Dawley (SD) rats were selected for the lymphatic transport studies involving mycophenolic acid lipid prodrugs. Depending on the therapeutic agent, male, female, or both may be selected for study. Rats (typically 240-320 g) were maintained on a standard diet and fasted overnight with free access to water prior to experiments.
Anesthetized rats were placed on a heated pad at 37° C. and cannulas inserted into the duodenum (for formulation administration and rehydration), mesenteric lymph duct (for lymph collection), and carotid artery (in cases where blood collection was conducted). Post-surgery, rats were re-hydrated for 0.5 h via intraduodenal infusion of normal saline at 2.8 mL/h. […] The collection tubes were changed hourly and lymph flow was measured gravimetrically. […]
Drug concentration in lymph is expressed as total drug and includes free drug and drug associated with different glycerides. […]
Transport of compounds into lymph during each hourly collection period was calculated from the product of the volume of lymph collected and the measured concentrations in lymph. For fluorescently-labelled compounds such as a BDP-conjugate, the concentrations of total compound may be measured by fluorescence spectroscopy without hydrolysis. […]

[4] = rat plasma supplemented with LPL, 180 min (FIG. 9, FIG. 10)

CCCCCCCCCCCCCCCC(=O)OCC(COC(=O)CCCCCCCCCCCCCCC)OC(=O)CC(C)CCCCCCCC(C)C(=O)Oc1c(C/C=C(\C)CCC(=O)OC)c(OC)c(C)c2c1C(=O)OC2 (stereo not drawn) [MPA-I-20]
monoglyceride (MG) peak after 180 min [1, 4]: almost completely disappeared

CCCCCCCCCCCCCCCC(=O)OCC(COC(=O)CCCCCCCCCCCCCCC)OC(=O)CC/C(C)=C/Cc1c(O)c2c(c(C)c1OC)COC2=O [MPA-TG]
concentrations of free MPA in mesenteric lymph nodes compared with MPA [2]: Much higher concentrations

CCCCCCCCCCCCCCCC(=O)OCC(COC(=O)CCCCCCCCCCCCCCC)OC(=O)COC(=O)CC/C(C)=C/Cc1c(O)c2c(c(C)c1OC)COC2=O [MPA-I-46]
Cumulative lymphatic transport % dose (Mean ± SD, or Range if n = 2) [3]: A (greater than 10% (>10%))

CCCCCCCCCCCCCCCC(=O)OCC(COC(=O)CCCCCCCCCCCCCCC)OC(=O)CC(C)CCCCCCCC(C)C(=O)OCCCCC(=O)Oc1c(C/C=C(\C)CCC(=O)OC)c(OC)c(C)c2c1C(=O)OC2 (stereo not drawn) [MPA-I-22, (E)-12-(1,3-Bis(palmitoyloxy)propan-2-yl) 1-(5-((6-methoxy-5-(6-methoxy-3-methyl-6-oxohex-2-en-1-yl)-7-methyl-3-oxo-1,3-dihydroisobenzofuran-4-yl)oxy)-5-oxopentyl) 2,10-dimethyldodecanedioate]
MPA released after 180 min [1, 4]: about 80%
monoglyceride (MG) peak after 180 min [1, 4]: almost completely disappeared

CCCCCCCCCCCCCCCC(=O)OCC(COC(=O)CCCCCCCCCCCCCCC)OC(=O)CCCCCC(=O)Oc1c(C/C=C(\C)CCC(=O)OC)c(OC)c(C)c2c1C(=O)OC2 [MPA-I-19]
Percentage MPA release at 60 min in LPL supplemented rat plasma ([1]; 60 min, n = 3 unless specified otherwise): **** (a release % of >75%)
Cumulative lymphatic transport % dose (Mean ± SD, or Range if n = 2) [3]: A (greater than 10% (>10%))

CCCCCCCCCCCCCCCC(=O)OCC(COC(=O)CCCCCCCCCCCCCCC)OC(=O)CC(C)COC(=O)CC/C(C)=C/Cc1c(O)c2c(c(C)c1OC)COC2=O (stereo not drawn) [MPA-I-50]
Cumulative lymphatic transport % dose (Mean ± SD, or Range if n = 2) [3]: A (greater than 10% (>10%))

CCCCCCCCCCCCCCCC(=O)OCC(COP(=O)([O-])OCC[N+](C)(C)C)OC(=O)CC/C(C)=C/Cc1c(O)c2c(c(C)c1OC)COC2=O (stereo not drawn) [MPA-I-39]
Cumulative lymphatic transport % dose (Mean ± SD, or Range if n = 2) [3]: C (less than 1% and greater than 0.24% (<1% and >0.24%))
